Converted amounts (≈) assume the structure as drawn. The source made the active and inactive calls. The rule behind the calls is not given here.
Legend:
Salmonella typhimurium [1] = assay: Antimicrobial activity against Salmonella typhimurium MTCC 3732 at 50 ug/mL after 12 hrs by well diffusion method; type: functional; conditions: for diameter of the inhibition zone (DIZ): Salmonella enterica subsp. enterica serovar Typhimurium
Staphylococcus aureus [2] = assay: Antimicrobial activity against Staphylococcus aureus MTCC 3160 at 100 ug/mL after 12 hrs by well diffusion method; type: functional; conditions: for zone of inhibition at 100 µg/mL: MTCC 3160, 12 h, read-out: DIZ
Candida albicans [3] = assay: Antimicrobial activity against Candida albicans MTCC 183 after 12 hrs by well diffusion method; type: functional; conditions: MTCC 183, 12 h
Candida albicans [4] = assay: Antimicrobial activity against Candida albicans MTCC 183 at 50 ug/mL after 12 hrs by well diffusion method; type: functional; conditions: for zone of inhibition at 50 µg/mL: MTCC 183, 12 h, read-out: DIZ
Candida albicans [5] = assay: Antimicrobial activity against Candida albicans MTCC 183 at 100 ug/mL after 12 hrs by well diffusion method; type: functional; conditions: for zone of inhibition at 100 µg/mL: MTCC 183, 12 h, read-out: DIZ
Pseudomonas aeruginosa [6] = assay: Antimicrobial activity against Pseudomonas aeruginosa MTCC 4673 after 12 hrs by well diffusion method; type: functional; conditions: MTCC 4673, 12 h
Salmonella typhimurium [7] = assay: Antimicrobial activity against Salmonella typhimurium MTCC 3732 after 12 hrs by well diffusion method; type: functional, Salmonella enterica subsp. enterica serovar Typhimurium; conditions: Salmonella enterica, MTCC 3732, 12 h
Pseudomonas aeruginosa [8] = assay: Antimicrobial activity against Pseudomonas aeruginosa MTCC 4673 at 100 ug/mL after 12 hrs by well diffusion method; type: functional
Salmonella typhimurium [9] = assay: Antimicrobial activity against Salmonella typhimurium MTCC 3732 at 100 ug/mL after 12 hrs by well diffusion method; type: functional; conditions: for diameter of the inhibition zone (DIZ): Salmonella enterica subsp. enterica serovar Typhimurium
Staphylococcus aureus [10] = assay: Antimicrobial activity against Staphylococcus aureus MTCC 3160 after 12 hrs by well diffusion method; type: functional; conditions: MTCC 3160, 12 h
[11] = tested on: Mycolicibacterium smegmatis; assay: Antimicrobial activity against Mycobacterium smegmatis MTCC 943 at 50 ug/mL after 12 hrs by well diffusion method; type: functional
Staphylococcus aureus [12] = conditions: MTCC 3160, 50 ug/mL
Description: Antimicrobial activity against Staphylococcus aureus MTCC 3160 at 50 ug/mL after 12 hrs by well diffusion method

[13] = tested on: Mycolicibacterium smegmatis; assay: Antimicrobial activity against Mycobacterium smegmatis MTCC 943 at 100 ug/mL after 12 hrs by well diffusion method; type: functional
Pseudomonas aeruginosa [14] = assay: Antimicrobial activity against Pseudomonas aeruginosa MTCC 4673 at 50 ug/mL after 12 hrs by well diffusion method; type: functional
[15] = tested on: Mycolicibacterium smegmatis; assay: Antimicrobial activity against Mycobacterium smegmatis MTCC 943 after 12 hrs by well diffusion method; type: functional; conditions: MTCC 943, 12 h
[16] = Salmonella enterica, MTCC 3732, 12 h, read-out: DIZ

SMILES | diameter of the inhibition zone (DIZ) (Salmonella typhimurium [1]) | zone of inhibition at 100 µg/mL (Staphylococcus aureus [2]) | MIC (Candida albicans [3]) | diameter of the inhibition zone (DIZ) (Candida albicans [4]) | zone of inhibition at 100 µg/mL (Candida albicans [5]) | MIC (Pseudomonas aeruginosa [6]) | MIC (Salmonella typhimurium [7]) | diameter of the inhibition zone (DIZ) (Pseudomonas aeruginosa [8]) | diameter of the inhibition zone (DIZ) (Salmonella typhimurium [9]) | MIC (Staphylococcus aureus [10]) | diameter of the inhibition zone (DIZ) [11] | DIZ (Staphylococcus aureus [12]) | diameter of the inhibition zone (DIZ) [13] | diameter of the inhibition zone (DIZ) (Pseudomonas aeruginosa [14]) | MIC [15] | diameter of the inhibition zone (DIZ) (Staphylococcus aureus [2]) | diameter of the inhibition zone (DIZ) (Candida albicans [5]) | also measured
O=C(O)c1cn(Cc2ccc(Cl)cc2Cl)c2cc(C(F)(F)F)ccc2c1=O | inactive | 10 mm | 50 µg/mL (≈ 120 µM) | inactive | 7 mm | > 100 µg/mL | > 100 µg/mL | inactive | inactive | 100 µg/mL (≈ 240 µM) | inactive | inactive | inactive | inactive | > 100 µg/mL |  |  | 
C#CCn1cc(C(=O)O)c(=O)c2cccc(C(F)(F)F)c21 | inactive |  |  | inactive |  |  |  | inactive | inactive |  | inactive | inactive | inactive | inactive |  | inactive | inactive | 
CCOC(=O)c1cn(Cc2ccc(C#N)cc2)c2c(C(F)(F)F)cccc2c1=O | inactive |  |  | inactive |  |  |  | inactive | inactive |  | inactive | inactive | inactive | inactive |  | inactive | inactive | 
OC(Cn1cncn1)(Cn1cncn1)c1ccc(F)cc1F [FLUCONAZOLE] |  |  | < 10 µg/mL |  | 29 mm |  |  |  |  |  |  |  |  |  |  |  |  | zone of inhibition at 50 µg/mL (Candida albicans [4]): 26.3 mm
CCOC(=O)c1cn(Cc2ccc(Cl)cc2Cl)c2cc(C(F)(F)F)ccc2c1=O | inactive |  |  | inactive |  |  |  | inactive | inactive |  | inactive | inactive | inactive | inactive |  | inactive | inactive | 
N#Cc1ccc(Cn2cc(C(=O)O)c(=O)c3cccc(C(F)(F)F)c32)cc1 | inactive | 8 mm | 100 µg/mL (≈ 269 µM) | inactive | 8 mm | 25 µg/mL (≈ 67.1 µM) | > 100 µg/mL |  | inactive | 100 µg/mL (≈ 269 µM) | inactive | inactive | inactive |  | > 100 µg/mL |  |  | zone of inhibition at 100 µg/mL (Pseudomonas aeruginosa [8]; MTCC 4673, 12 h, read-out: DIZ): 8 mm; zone of inhibition at 50 µg/mL (Pseudomonas aeruginosa [14]; MTCC 4673, 12 h, read-out: DIZ): 8 mm
C#CCn1cc(C(=O)NN)c(=O)c2cccc(C(F)(F)F)c21 | inactive |  |  | inactive |  |  |  | inactive | inactive |  | inactive | inactive | inactive | inactive |  | inactive | inactive | 
C#CCn1cc(C(=O)O)c(=O)c2ccc(C(F)(F)F)cc21 |  | 10 mm | 25 µg/mL (≈ 84.7 µM) |  | 12 mm | > 100 µg/mL | 25 µg/mL (≈ 84.7 µM) | inactive |  | 100 µg/mL (≈ 339 µM) | inactive | inactive |  | inactive | 100 µg/mL (≈ 339 µM) |  |  | zone of inhibition at 50 µg/mL (Salmonella typhimurium [1]; [16]): 8 mm; zone of inhibition at 50 µg/mL (Candida albicans [4]): 12 mm; zone of inhibition at 100 µg/mL (Salmonella typhimurium [9]; [16]): 8 mm; zone of inhibition at 100 µg/mL ([13]; MTCC 943, 12 h, read-out: DIZ): 7 mm

Reference: ChEMBL document CHEMBL2424533, “Design and regioselective synthesis of trifluoromethylquinolone derivatives as potent antimicrobial agents” (2013)
